This test relates to acetylated tubulin (Lys40) in HeLa cells. The test can be described thus: Acetylated α-tubulin measurement in vitro (immunocytochemistry). The note with it: Homo sapiens, 6 hours incubation, acetylated tubulin (Lys40) by immunocytochemistry, read-out: IC50 (Tubulin deacetylation). The format is cell-based. On the procedure:
HeLa cells were cultured in UltraCulture serum-free medium (Lonza) supplemented with 2 mM glutamine (Lonza). Assays were performed at 96-well or 384-well format, differences in assay protocols are detailed in Table 6. Cells per well were plated and incubated overnight at 37° C. overnight in a humidified atmosphere containing 5% CO2. Cell density and seeding volumes are detailed in Table 6. Compounds (dissolved in 100% DMSO) or DMSO (vehicle) were added manually by diluting them in culture medium at 10× final assay concentration and adding 10 μL to cells (96-well protocol). Alternatively, 50 nL compound was added directly to the cell culture using the Echo650 (Labcyte) (384-well protocol). In this assay, the final assay concentration of DMSO is 0.1%-0.4%. Trichostatin A (TSA) was used as a positive control. Cells were incubated with compounds at 37° C. in a humidified atmosphere containing 5% CO2 for 6 hours. Levels of acetylated tubulin (Lys40) were assessed by immunocytochemistry using target-specific antibodies. Cells were fixed with 4% PFA at RT as detailed in Table 6. After 2-3 wash steps with PBS, cells were permeabilized with 0.5% Triton in PBS at RT for 10 minutes followed by 1-2 washes with PBS. To avoid non-specific antibody staining, cells were blocked with 3% BSA in PBS at room temperature for 1 hour. […] Cells were washed 2-3 times with PBS and labelled for 1 h at RT with goat anti-mouse conjugated with Alexa 647 (Thermofisher) and goat anti-rabbit conjugated with Alexa 555 (Thermofisher) secondary antibodies, diluted in 1% BSA to a final concentration of 1:1000. Simultaneously, nuclei were stained with 1:10000-1:15000 Hoechst (Thermofisher). Incubation time and temperature of the primary antibodies are detailed in Table 6. Cells were washed 2-3 times with PBS and they were imaged with the Operetta CLS or Opera Phenix (PerkinElmer). Imaging is further detailed in Table 6. For imaging analysis, the Harmony analysis software (PerkinElmer) was used. Cytoplasmic (defined by total α-tubulin staining) intensities per well were used for α-tubulin (acetylated and total) quantification. Intensities were measured per cell and then averaged per well. Mean intensity levels of acetylated tubulin were normalized to the mean intensity levels of total tubulin. The changes in acetylated tubulin were normalized for each plate using GraphPad Prism software: tubulin acetylation in vehicle (DMSO)-treated cells were set to 0% while tubulin acetylation in TSA-treated cells were set to 100%. EC50 values were calculated using the log(inhibitor) vs. response—Variable slope (four parameters) nonlinear regression in GraphPad Prism software.

SMILES strings stand for the structures.

For the compound `O=C(CSc1nc(C(F)(F)F)nc2nn(C3CC3)cc12)c1ccc(CNC(=O)C2CC2(F)F)s1` (stereo not shown) [Example 43, N-((5-(2-((2-cyclopropyl-6-(trifluoromethyl)-2H-pyrazolo[3,4-d]pyrimidin-4-yl)thio)acetyl)thiophen-2-yl)methyl)-2,2-difluorocyclopropane-1-carboxamide], the IC50 fell in the range of 100 to 500 nM.
In the case of `O=C(CSc1nc(C(F)(F)F)nc2nn(C3CC3)cc12)c1ccc(CNC(=O)C(F)(F)C(F)(F)F)s1` [Example 44, N-((5-(2-((2-cyclopropyl-6-(trifluoromethyl)-2H-pyrazolo[3,4-d]pyrimidin-4-yl)thio)acetyl)thiophen-2-yl)methyl)-2,2,3,3,3-pentafluoropropanamide], the IC50 lay in the range of 100 to 500 nM.
Next, `O=C(CSc1nc2nc(C(F)(F)F)ccc2o1)c1ccc(CNC(=O)C2(O)CC2)s1` [Example 45, 1-hydroxy-N-((5-(2-((5-(trifluoromethyl)oxazolo[4,5-b]157yrrolid-2-yl)thio)acetyl)thiophen-2-yl)methyl)cyclopropane-1-carboxamide]: ≤ 100 nM; `Cn1cc2c(SCC(=O)c3ccc(CNC(=O)C(O)C(F)(F)F)s3)nc(C(F)(F)F)nc2n1` (stereo not shown) [Example 46, 3,3,3-trifluoro-2-hydroxy-N-((5-(2-((2-methyl-6-(trifluoromethyl)-2H-pyrazolo[3,4-d]pyrimidin-4-yl)thio)acetyl)thiophen-2-yl)methyl)propanamide]: 100 to 500 nM; `O=C(CSc1nc(C(F)(F)F)nc2ccc(N3CCOCC3)cc12)c1ccc(CNC(=O)C2(O)CC2)s1` [Example 47, 1-hydroxy-N-((5-(2-((6-morpholino-2-(trifluoromethyl)quinazolin-4-yl)thio)acetyl)thiophen-2-yl)methyl)cyclopropane-1-carboxamide]: 100 to 500 nM.
Then `Cn1cc2c(SCC(=O)c3ccc(CNC(=O)C(C)(C)O)s3)nc(C(F)(F)F)nc2n1` [Example 48, 2-hydroxy-2-methyl-N-((5-(2-((2-methyl-6-(trifluoromethyl)-2H-pyrazolo[3,4-d]pyrimidin-4-yl)thio)acetyl)thiophen-2-yl)methyl)propanamide], with 100 to 500 nM; and `Cn1cc2c(SCC(=O)c3ccc(CNC(=O)C4(O)CC4)s3)nc(C(F)(F)F)nc2n1` [Example 49, 1-hydroxy-N-((5-(2-((2-methyl-6-(trifluoromethyl)-2H-pyrazolo[3,4-d]pyrimidin-4-yl)thio)acetyl)thiophen-2-yl)methyl)cyclopropane-1-carboxamide], with 100 to 500 nM.
Then `COc1ccc2nc(C)nc(SCC(=O)c3ccc(CNC(=O)C4(O)CC4)s3)c2c1` [Example 50, 1-hydroxy-N-((5-(2-((6-methoxy-2-methylquinazolin-4-yl)thio)acetyl)thiophen-2-yl)methyl)cyclopropane-1-carboxamide], with 100 to 500 nM.
Regarding `COc1ccc2nc(C)nc(SCC(=O)c3ccc(CNC(=O)C4CC4)s3)c2c1` [Example 51, N-((5-(2-((6-methoxy-2-methylquinazolin-4-yl)thio)acetyl)thiophen-2-yl)methyl)cyclopropanecarboxamide], the IC50 was 1000 to 3330 nM.
As for `Cn1ncc2c(SCC(=O)c3ccc(CNC(=O)CO)s3)ncnc21` [Example 59, 2-hydroxy-N-((5-(2-((1-methyl-1H-pyrazolo[3,4-d]pyrimidin-4-yl)thio)acetyl)thiophen-2-yl)methyl)acetamide], the IC50 was in the range of 100 to 500 nM.
Next, `COc1ccc2nc(C)nc(SCC(=O)c3ccc(CNC(=O)CO)s3)c2c1` [Example 60, 2-Hydroxy-N-((5-(2-((6-methoxy-2-methylquinazolin-4-yl)thio)acetyl)thiophen-2-yl)methyl)acetamide]: 100 to 500 nM.
As for `Cn1cc2c(SCC(=O)c3ccc(CNC(=O)CO)s3)nc(C(F)(F)F)nc2n1` [Example 61, 2-hydroxy-N-((5-(2-((2-methyl-6-(trifluoromethyl)-2H-pyrazolo[3,4-d]pyrimidin-4-yl)thio)acetyl)thiophen-2-yl)methyl)acetamide], the IC50 was ≤ 100 nM.
As for `CCc1nc(SCC(=O)c2ccc(CNC(=O)CO)s2)c2ccccc2n1` [Example 62, N-((5-(2-((2-ethylquinazolin-4-yl)thio)acetyl)thiophen-2-yl)methyl)-2-hydroxyacetamide], the IC50 was 100 to 500 nM.
Next, `O=C(CO)NCc1ccc(C(=O)CSc2nc(C(F)(F)F)nc3ccc(N4CCOCC4)cc23)s1` [Example 63]: 100 to 500 nM.
Then `Cc1nc(SCC(=O)c2ccc(CNC(=O)CO)s2)c2cccnc2n1` [Example 64, 2-hydroxy-N-((5-(2-((2-methylpyrido[2,3-d]pyrimidin-4-yl)thio)acetyl)thiophen-2-yl)methyl)acetamide], with ≤ 100 nM; and `Cc1nc(SCC(=O)c2ccc(CNC(=O)CO)s2)c2cn(C)nc2n1` [Example 65, N-((5-(2-((2,6-dimethyl-2H-pyrazolo[3,4-d]pyrimidin-4-yl)thio)acetyl)thiophen-2-yl)methyl)-2-hydroxyacetamide], with 1000 to 3330 nM.
With `Cc1nc(SCC(=O)c2ccc(CNC(=O)CO)s2)c2ccccc2n1` [Example 66, 2-hydroxy-N-((5-(2-((2-methylquinazolin-4-yl)thio)acetyl)thiophen-2-yl)methyl)acetamide], the IC50 lay within 100 to 500 nM.
Next, `Cc1nc(SCC(=O)c2ccc(CNC(=O)CO)s2)c2cc(F)ccc2n1` [Example 67, N-((5-(2-((6-fluoro-2-methylquinazolin-4-yl)thio)acetyl)thiophen-2-yl)methyl)-2-hydroxyacetamide]: 100 to 500 nM; `Cc1nc(SCC(=O)c2ccc(CNC(=O)CO)s2)c2ccc(F)cc2n1` [Example 68, N-((5-(2-((7-fluoro-2-methylquinazolin-4-yl)thio)acetyl)thiophen-2-yl)methyl)-2-hydroxyacetamide]: 100 to 500 nM; `Cn1cc2c(SCC(=O)c3ccc(CNC(=O)CO)s3)nc(C(F)F)nc2n1` [Example 69, N-((5-(2-((6-(difluoromethyl)-2-methyl-2H-pyrazolo[3,4-d]pyrimidin-4-yl)thio)acetyl)thiophen-2-yl)methyl)-2-hydroxyacetamide]: 100 to 500 nM.
With `COc1ccc2c(SCC(=O)c3ccc(CNC(=O)CO)s3)nc(C)nc2c1` [Example 70, 2-hydroxy-N-((5-(2-((7-methoxy-2-methylquinazolin-4-yl)thio)acetyl)thiophen-2-yl)methyl)acetamide], the IC50 lay within 100 to 500 nM.
Then `O=C(CO)NCc1ccc(C(=O)CSc2nc3cc(C(F)(F)F)ncc3o2)s1` [Example 71, 2-hydroxy-N-((5-(2-((6-(trifluoromethyl)oxazolo[5,4-c]156yrrolid-2-yl)thio)acetyl)thiophen-2-yl)methyl)acetamide], with ≤ 100 nM; and `O=C(CO)NCc1ccc(C(=O)CSc2nc3nc(C(F)(F)F)ccc3o2)s1` [Example 72, 2-hydroxy-N-((5-(2-((5-(trifluoromethyl)oxazolo[4,5-b]156yrrolid-2-yl)thio)acetyl)thiophen-2-yl)methyl)acetamide], with ≤ 100 nM; and `Cc1nc(SCC(=O)c2ccc(CNC(=O)CO)s2)c2cc(Cl)c(F)cc2n1` [Example 73, N-((5-(2-((6-chloro-7-fluoro-2-methylquinazolin-4-yl)thio)acetyl)thiophen-2-yl)methyl)-2-hydroxyacetamide], with 100 to 500 nM.
Next, `Cn1ncc2c(SCC(=O)c3ccc(CNC(=O)CO)s3)nc(C(F)(F)F)nc21` [Example 74, 2-hydroxy-N-((5-(2-((1-methyl-6-(trifluoromethyl)-1H-pyrazolo[3,4-d]pyrimidin-4-yl)thio)acetyl)thiophen-2-yl)methyl)acetamide]: 100 to 500 nM; `Cc1nc(SCC(=O)c2ccc(CNC(=O)CO)s2)c2cc(C(F)(F)F)ccc2n1` [Example 76, 2-hydroxy-N-((5-(2-((2-methyl-6-(trifluoromethyl)quinazolin-4-yl)thio)acetyl)thiophen-2-yl)methyl)acetamide]: ≤ 100 nM; `Cc1nc(SCC(=O)c2ccc(CNC(=O)CO)s2)c2cc(OC3CC3)ccc2n1` [Example 77, N-((5-(2-((6-cyclopropoxy-2-methylquinazolin-4-yl)thio)acetyl)thiophen-2-yl)methyl)-2-hydroxyacetamide]: 100 to 500 nM.
As for `Cc1nc(SCC(=O)c2ccc(CNC(=O)CO)s2)c2cc(NCC3CC3)ccc2n1` [Example 78, N-((5-(2-((6-((cyclopropylmethyl)amino)-2-methylquinazolin-4-yl)thio)acetyl)thiophen-2-yl)methyl)-2-hydroxyacetamide], the IC50 lay in the range of 100 to 500 nM.

A word on the IC50: it is the point on the concentration scale where inhibition reaches its midpoint.

For the origin of these results see patent publication US12421222B2 (AUGUSTINE THERAPEUTICS, priority 2021, dated 2025).
